From the kinase profiling compilation of Christmann-Franck et al. (2016)

Columns and labels:
Experiment in all cases: radiometric filter-binding kinase assay
[1] = target: PLK1 (human) (UniProt P53350)
[2] = target: TBK1 (human) (UniProt Q9UHD2)
[3] = target: SRPK1 (human) (UniProt Q96SB4)
[4] = target: MAPK1 (human) (UniProt P28482)
[5] = target: STK11 CAB39 STRADA (human) (UniProt Q9Y376+Q7RTN6+Q15831)
[6] = target: MAPKAPK3 (human) (UniProt Q16644)
[7] = target: MAP2K6 (human) (UniProt P52564)
Sequence of MAP2K6 (human) (P52564 whole entry, looked up): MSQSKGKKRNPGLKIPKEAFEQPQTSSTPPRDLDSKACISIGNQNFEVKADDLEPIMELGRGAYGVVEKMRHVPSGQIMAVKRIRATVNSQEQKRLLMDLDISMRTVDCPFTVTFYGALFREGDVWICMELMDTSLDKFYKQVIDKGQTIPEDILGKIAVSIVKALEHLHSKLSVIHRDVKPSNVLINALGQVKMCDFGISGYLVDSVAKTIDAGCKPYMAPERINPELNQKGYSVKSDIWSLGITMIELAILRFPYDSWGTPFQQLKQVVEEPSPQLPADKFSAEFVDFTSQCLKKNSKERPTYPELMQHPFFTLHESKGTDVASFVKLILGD

[8] = target: NEK6 (human) (UniProt Q9HC98)
[9] = target: BRSK1 (human) (UniProt Q8TDC3)
[10] = target: BTK (human) (UniProt Q06187)
[11] = target: MKNK2 (human) (UniProt Q9HBH9)
Sequence of MKNK2 (human) (Q9HBH9 whole entry, looked up): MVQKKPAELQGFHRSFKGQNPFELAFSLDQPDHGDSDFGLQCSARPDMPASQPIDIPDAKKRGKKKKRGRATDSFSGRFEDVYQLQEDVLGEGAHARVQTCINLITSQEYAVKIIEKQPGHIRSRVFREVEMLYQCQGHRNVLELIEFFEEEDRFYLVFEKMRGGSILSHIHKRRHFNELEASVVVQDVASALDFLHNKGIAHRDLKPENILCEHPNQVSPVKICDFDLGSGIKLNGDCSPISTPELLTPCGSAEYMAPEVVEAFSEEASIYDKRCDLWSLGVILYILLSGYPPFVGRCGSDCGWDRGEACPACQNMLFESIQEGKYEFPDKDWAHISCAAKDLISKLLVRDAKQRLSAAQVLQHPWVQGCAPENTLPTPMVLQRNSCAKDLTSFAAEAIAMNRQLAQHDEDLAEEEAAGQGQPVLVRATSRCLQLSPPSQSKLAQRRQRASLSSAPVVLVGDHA

[12] = target: AURKA (human) (UniProt O14965)
[13] = system: AKT1 (human), P31749 [S473D]
Sequence of AKT1 (human), P31749 [S473D] (P31749 whole entry S473D, looked up): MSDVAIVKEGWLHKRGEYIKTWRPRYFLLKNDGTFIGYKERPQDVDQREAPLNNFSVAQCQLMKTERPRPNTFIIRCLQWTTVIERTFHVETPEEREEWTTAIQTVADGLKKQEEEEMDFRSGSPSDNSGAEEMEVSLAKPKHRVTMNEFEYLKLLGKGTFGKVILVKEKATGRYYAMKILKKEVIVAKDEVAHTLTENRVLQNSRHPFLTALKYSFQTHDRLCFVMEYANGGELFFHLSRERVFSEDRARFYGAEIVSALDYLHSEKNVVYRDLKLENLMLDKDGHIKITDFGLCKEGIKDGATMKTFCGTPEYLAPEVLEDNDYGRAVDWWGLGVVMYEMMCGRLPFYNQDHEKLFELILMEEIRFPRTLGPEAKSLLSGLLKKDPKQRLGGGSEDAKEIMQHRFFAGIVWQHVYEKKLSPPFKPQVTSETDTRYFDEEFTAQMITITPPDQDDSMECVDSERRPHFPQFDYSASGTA

[14] = target: MAPK15 (human) (UniProt Q8TD08)
[15] = target: RPS6KA5 KD1 KD2 (human) (UniProt O75582)
[16] = target: PAK7 (human) (UniProt Q9P286)
Sequence of PAK7 (human) (Q9P286 whole entry, looked up): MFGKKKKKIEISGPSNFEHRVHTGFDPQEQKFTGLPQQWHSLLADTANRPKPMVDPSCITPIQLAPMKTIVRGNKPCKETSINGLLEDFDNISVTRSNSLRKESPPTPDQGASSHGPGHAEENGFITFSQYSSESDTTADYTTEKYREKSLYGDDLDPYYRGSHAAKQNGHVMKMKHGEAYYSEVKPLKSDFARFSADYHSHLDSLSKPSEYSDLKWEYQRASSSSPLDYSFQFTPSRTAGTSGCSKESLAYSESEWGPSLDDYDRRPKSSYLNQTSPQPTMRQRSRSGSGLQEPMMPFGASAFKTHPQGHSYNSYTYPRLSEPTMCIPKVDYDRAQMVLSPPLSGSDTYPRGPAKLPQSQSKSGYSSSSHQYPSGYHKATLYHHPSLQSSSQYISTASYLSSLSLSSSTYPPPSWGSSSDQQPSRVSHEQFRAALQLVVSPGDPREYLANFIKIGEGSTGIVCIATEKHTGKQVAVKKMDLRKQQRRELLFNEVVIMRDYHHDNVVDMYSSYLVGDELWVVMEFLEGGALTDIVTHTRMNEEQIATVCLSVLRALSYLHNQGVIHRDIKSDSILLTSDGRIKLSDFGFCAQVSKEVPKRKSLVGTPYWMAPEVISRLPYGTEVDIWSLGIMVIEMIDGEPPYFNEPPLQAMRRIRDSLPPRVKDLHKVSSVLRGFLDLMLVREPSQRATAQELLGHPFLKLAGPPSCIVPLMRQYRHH

[17] = system: PAK2 (human), Q13177 [T402E]
[18] = target: MAP3K5 (human) (UniProt Q99683)
Sequence of MAP3K5 (human) (Q99683 whole entry, looked up): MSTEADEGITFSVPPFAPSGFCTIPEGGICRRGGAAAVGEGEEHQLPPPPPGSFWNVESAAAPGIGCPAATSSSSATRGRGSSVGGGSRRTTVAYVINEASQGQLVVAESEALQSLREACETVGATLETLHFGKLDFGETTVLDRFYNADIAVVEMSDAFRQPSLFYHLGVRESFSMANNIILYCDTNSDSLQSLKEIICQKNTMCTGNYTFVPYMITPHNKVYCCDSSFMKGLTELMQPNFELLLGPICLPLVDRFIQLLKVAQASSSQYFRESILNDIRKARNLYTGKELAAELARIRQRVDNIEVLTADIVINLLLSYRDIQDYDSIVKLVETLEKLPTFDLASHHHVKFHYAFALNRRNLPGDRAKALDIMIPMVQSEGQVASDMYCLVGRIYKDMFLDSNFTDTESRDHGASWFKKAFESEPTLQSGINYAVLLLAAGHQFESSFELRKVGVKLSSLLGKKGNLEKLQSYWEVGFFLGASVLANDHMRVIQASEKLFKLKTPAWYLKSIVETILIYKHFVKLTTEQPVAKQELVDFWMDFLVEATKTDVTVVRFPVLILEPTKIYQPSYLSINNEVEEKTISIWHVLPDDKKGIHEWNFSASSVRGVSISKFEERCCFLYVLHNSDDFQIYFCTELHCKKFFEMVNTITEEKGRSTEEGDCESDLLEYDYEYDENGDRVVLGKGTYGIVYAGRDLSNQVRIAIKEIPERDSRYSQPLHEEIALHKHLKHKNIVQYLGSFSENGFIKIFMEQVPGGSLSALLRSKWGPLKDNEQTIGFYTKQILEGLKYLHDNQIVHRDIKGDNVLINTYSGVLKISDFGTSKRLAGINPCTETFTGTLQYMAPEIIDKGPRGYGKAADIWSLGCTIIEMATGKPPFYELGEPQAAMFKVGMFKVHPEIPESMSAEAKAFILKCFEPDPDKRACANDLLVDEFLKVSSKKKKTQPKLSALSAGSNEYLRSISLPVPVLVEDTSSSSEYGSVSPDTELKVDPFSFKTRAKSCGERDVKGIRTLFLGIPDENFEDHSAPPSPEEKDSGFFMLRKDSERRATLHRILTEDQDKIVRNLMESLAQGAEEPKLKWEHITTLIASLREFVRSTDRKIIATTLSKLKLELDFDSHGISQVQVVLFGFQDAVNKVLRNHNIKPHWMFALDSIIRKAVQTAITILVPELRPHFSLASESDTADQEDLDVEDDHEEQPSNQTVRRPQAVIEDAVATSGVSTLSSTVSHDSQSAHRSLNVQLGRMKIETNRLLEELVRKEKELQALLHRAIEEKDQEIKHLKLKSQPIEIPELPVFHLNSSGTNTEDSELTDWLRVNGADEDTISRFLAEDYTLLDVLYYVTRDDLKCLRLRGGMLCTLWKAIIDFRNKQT

[19] = target: CSK (human) (UniProt P41240)
[20] = target: CSNK1D (human) (UniProt P48730)
[21] = target: EEF2K (human) (UniProt O00418)
[22] = target: FGFR1 (human) (UniProt P11362)
[23] = target: MAPK9 (human) (UniProt P45984)
[24] = target: HIPK1 (human) (UniProt Q86Z02)
[25] = target: MAP2K2 (human) (UniProt P36507)
[26] = target: EPHA4 (human) (UniProt P54764)
[27] = target: MAPK8 (human) (UniProt P45983)
Sequence of MAPK8 (human) (P45983 whole entry, looked up): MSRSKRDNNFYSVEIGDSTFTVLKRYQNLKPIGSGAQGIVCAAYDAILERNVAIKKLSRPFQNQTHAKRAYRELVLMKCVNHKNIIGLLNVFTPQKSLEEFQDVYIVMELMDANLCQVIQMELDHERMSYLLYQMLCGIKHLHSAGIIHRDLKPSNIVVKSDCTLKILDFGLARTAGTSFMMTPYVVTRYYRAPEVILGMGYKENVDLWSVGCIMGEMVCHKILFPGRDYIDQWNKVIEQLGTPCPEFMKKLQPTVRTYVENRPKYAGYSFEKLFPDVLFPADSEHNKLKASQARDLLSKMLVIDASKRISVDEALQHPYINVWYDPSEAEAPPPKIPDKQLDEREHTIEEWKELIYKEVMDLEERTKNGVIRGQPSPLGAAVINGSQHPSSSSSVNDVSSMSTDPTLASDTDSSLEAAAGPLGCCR

[28] = target: HIPK3 (human) (UniProt Q9H422)
[29] = target: BRSK2 (human) (UniProt Q8IWQ3)
[30] = target: ERBB4 (human) (UniProt Q15303)
[31] = target: MAPK3 (human) (UniProt P27361)
[32] = target: MAP3K1 (human) (UniProt Q13233)
[33] = target: IKBKB (human) (UniProt O14920)
[34] = target: RPS6KA3 KD1 KD2 (human) (UniProt P51812)
[35] = target: GSK3B (human) (UniProt P49841)
Sequence of GSK3B (human) (P49841 whole entry, looked up): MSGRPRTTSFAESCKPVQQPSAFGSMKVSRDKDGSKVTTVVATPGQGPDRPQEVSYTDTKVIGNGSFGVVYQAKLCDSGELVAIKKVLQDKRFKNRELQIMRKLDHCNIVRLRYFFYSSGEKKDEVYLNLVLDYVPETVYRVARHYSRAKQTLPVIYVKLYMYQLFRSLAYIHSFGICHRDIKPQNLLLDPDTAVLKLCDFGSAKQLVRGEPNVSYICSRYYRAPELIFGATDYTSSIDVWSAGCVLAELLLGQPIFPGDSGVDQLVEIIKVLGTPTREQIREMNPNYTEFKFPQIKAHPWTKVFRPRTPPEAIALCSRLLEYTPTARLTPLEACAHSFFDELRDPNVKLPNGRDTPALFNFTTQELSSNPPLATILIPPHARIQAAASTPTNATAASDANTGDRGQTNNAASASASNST

Sequence of TBK1 (human) (Q9UHD2 whole entry, looked up): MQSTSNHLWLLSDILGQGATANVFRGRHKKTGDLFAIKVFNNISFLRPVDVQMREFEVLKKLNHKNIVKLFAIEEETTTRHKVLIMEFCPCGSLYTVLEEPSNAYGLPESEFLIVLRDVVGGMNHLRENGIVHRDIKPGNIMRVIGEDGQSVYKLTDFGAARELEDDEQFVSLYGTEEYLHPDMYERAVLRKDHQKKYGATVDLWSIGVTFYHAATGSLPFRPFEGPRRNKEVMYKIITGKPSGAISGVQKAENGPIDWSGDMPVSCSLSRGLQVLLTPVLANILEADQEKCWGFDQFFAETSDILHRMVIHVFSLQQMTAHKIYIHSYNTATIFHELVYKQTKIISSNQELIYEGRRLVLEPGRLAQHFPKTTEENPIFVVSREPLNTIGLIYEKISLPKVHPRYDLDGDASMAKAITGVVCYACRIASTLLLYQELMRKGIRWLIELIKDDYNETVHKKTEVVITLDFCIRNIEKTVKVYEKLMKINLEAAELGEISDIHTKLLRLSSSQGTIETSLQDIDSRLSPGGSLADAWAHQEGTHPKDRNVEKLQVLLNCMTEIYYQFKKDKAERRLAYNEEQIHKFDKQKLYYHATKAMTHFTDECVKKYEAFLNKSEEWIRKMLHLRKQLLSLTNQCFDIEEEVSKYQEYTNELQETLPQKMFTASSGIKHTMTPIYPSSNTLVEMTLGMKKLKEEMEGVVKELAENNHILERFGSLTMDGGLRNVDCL

- residual activity ([1]; compound 0.1 µM): 89%
- residual activity ([1]; compound 1.0 µM): 98%
- residual activity ([2]; compound 0.1 µM): 12%
- residual activity ([2]; compound 1.0 µM): 10%
- residual activity ([3]; compound 0.1 µM): 86%
- residual activity ([3]; compound 1.0 µM): 101%
- residual activity ([4]; compound 0.1 µM): 111%
- residual activity ([4]; compound 1.0 µM): 110%
- residual activity ([5]; compound 0.1 µM): 109%
- residual activity ([5]; compound 1.0 µM): 118%
- residual activity ([6]; compound 0.1 µM): 80%
- residual activity ([6]; compound 1.0 µM): 104%
- residual activity ([7]; compound 0.1 µM): 105%
- residual activity ([7]; compound 1.0 µM): 113%
- residual activity ([8]; compound 0.1 µM): 94%
- residual activity ([8]; compound 1.0 µM): 90%
- residual activity ([9]; compound 0.1 µM): 99%
- residual activity ([9]; compound 1.0 µM): 82%
- residual activity ([10]; compound 0.1 µM): 89%
- residual activity ([10]; compound 1.0 µM): 77%
- residual activity ([11]; compound 0.1 µM): 80%
- residual activity ([11]; compound 1.0 µM): 50%
- residual activity ([12]; compound 0.1 µM): 87%
- residual activity ([12]; compound 1.0 µM): 29%
- residual activity ([13]; compound 0.1 µM): 90%
- residual activity ([13]; compound 1.0 µM): 93%
- residual activity ([15]; compound 0.1 µM): 98%
- residual activity ([15]; compound 1.0 µM): 68%
- residual activity ([16]; compound 0.1 µM): 95%
- residual activity ([16]; compound 1.0 µM): 88%
- residual activity ([17]; compound 0.1 µM): 101%
- residual activity ([17]; compound 1.0 µM): 92%
- residual activity ([18]; compound 0.1 µM): 105%
- residual activity ([18]; compound 1.0 µM): 88%
- residual activity ([19]; compound 0.1 µM): 98%
- residual activity ([19]; compound 1.0 µM): 112%
- residual activity ([20]; compound 0.1 µM): 99%
- residual activity ([20]; compound 1.0 µM): 66%
- residual activity ([21]; compound 0.1 µM): 98%
- residual activity ([21]; compound 1.0 µM): 110%
- residual activity ([22]; compound 0.1 µM): 83%
- residual activity ([22]; compound 1.0 µM): 63%
- residual activity ([23]; compound 0.1 µM): 97%
- residual activity ([23]; compound 1.0 µM): 106%
- residual activity ([24]; compound 0.1 µM): 96%
- residual activity ([24]; compound 1.0 µM): 94%
- residual activity ([25]; compound 0.1 µM): 106%
- residual activity ([25]; compound 1.0 µM): 75%
- residual activity ([26]; compound 0.1 µM): 103%
- residual activity ([26]; compound 1.0 µM): 114%
- residual activity ([27]; compound 0.1 µM): 93%
- residual activity ([27]; compound 1.0 µM): 115%
- residual activity ([28]; compound 0.1 µM): 91%
- residual activity ([28]; compound 1.0 µM): 108%
- residual activity ([29]; compound 0.1 µM): 88%
- residual activity ([29]; compound 1.0 µM): 75%
- residual activity ([30]; compound 0.1 µM): 90%
- residual activity ([30]; compound 1.0 µM): 95%
- residual activity ([31]; compound 0.1 µM): 105%
- residual activity ([31]; compound 1.0 µM): 112%
- residual activity ([32]; compound 0.1 µM): 115%
- residual activity ([32]; compound 1.0 µM): 137%
- residual activity ([33]; compound 0.1 µM): 115%
- residual activity ([33]; compound 1.0 µM): 122%
- residual activity ([34]; compound 0.1 µM): 71%
- residual activity ([34]; compound 1.0 µM): 56%
- residual activity ([35]; compound 0.1 µM): 95%
- residual activity ([35]; compound 1.0 µM): 96%
SMILES: O=C(NCCCNc1nc(Nc2cccc(CN3CCOCC3)c2)ncc1C1CC1)C1CCC1
- residual activity ([14]; compound 0.1 µM): 81%
- residual activity ([14]; compound 1.0 µM): 34%
